This passage reports IC50 results from patent US11306087B2, “Inhibitors of KRAS G12C and methods of using the same” (Amgen Inc., priority 2017, dated 2022).

For assay [1], the target named is GDP-bound KRAS protein (aa 1-169), containing both G12C and C118A amino acid substitutions (Homo sapiens (Human), UniProt P01116, C118A/G12C). The assay is described as follows: Coupled Nucleotide Exchange Assay. The class given is biochemical. Particulars: 5 min compound pre-incubation; inhibition of SOS-mediated nucleotide exchange; AlphaScreen. The method, then: For compounds in Table 2, the following assay conditions were employed: Coupled Nucleotide Exchange Assay: Purified GDP-bound KRAS protein (aa 1-169), containing both G12C and C118A amino acid substitutions and an N-terminal His-tag, was pre-incubated with a compound dose-response titration for 5 min in assay buffer (25 mM HEPES pH 7.4, 10 mM MgCl2, and 0.01% Triton X-100). Following compound pre-incubation, purified SOS protein (aa 564-1049) and GTP (Roche 10106399001) were added to the assay wells and incubated for an additional 30 min. To determine the extent of inhibition of SOS-mediated nucleotide exchange, purified GST-tagged cRAF (aa 1-149), nickel chelate AlphaLISA acceptor beads (PerkinElmer AL108R), and AlphaScreen glutathione donor beads (PerkinElmer 6765302) were added to the assay wells and incubated for 5 minutes. The assay plates were then read on a PerkinElmer EnVision Multilabel Reader, using AlphaScreen® technology, and data were analyzed using a 4-parameter logistic model to calculate IC50 values.
Sequence of GDP-bound KRAS protein (aa 1-169), containing both G12C and C118A amino acid substitutions (P01116 other isoform, or with tags, fused parts or gaps G12C/C118A): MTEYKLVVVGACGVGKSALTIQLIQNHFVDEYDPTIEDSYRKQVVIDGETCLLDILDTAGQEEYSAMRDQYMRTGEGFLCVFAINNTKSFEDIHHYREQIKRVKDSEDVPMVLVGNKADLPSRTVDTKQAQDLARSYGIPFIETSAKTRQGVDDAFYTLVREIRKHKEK
(Alpha assays give light when donor and acceptor beads are brought close together.)

Assay [2] deals with Phosphorylation of ERK1/2 in MIA PaCa-2 cells. The assay is described as follows: Phospho-ERK1/2 MSD Assay. Particulars: Homo sapiens, 2 hours compound treatment, 10 ng/mL EGF for 10 min, read-out: p-ERK IC50 (MIA PaCa-2). The assay is classed as cell-based. The procedure:
Phospho-ERK1/2 MSD Assay: MIA PaCa-2 (ATCC® CRL-1420™) and A549 (ATCC® CCL-185™) cells were cultured in RPMI 1640 Medium (ThermoFisher Scientific 11875093) containing 10% fetal bovine serum (ThermoFisher Scientific 16000044) and 1× penicillin-streptomycin-glutamine (ThermoFisher Scientific 10378016). Sixteen hours prior to compound treatment, MIA PaCa-2 or A549 cells were seeded in 96-well cell culture plates at a density of 25,000 cells/well and incubated at 37° C., 5% CO2. A compound dose-response titration was diluted in growth media, added to appropriate wells of a cell culture plate, and then incubated at 37° C., 5% CO2 for 2 hours. Following compound treatment, cells were stimulated with 10 ng/mL EGF (Roche 11376454001) for 10 min, washed with ice-cold Dulbecco's phosphate-buffered saline, no Ca^2+ or Mg^2+ (ThermoFisher Scientific 14190144), and then lysed in RIPA buffer (50 mM Tris-HCl pH 7.5, 1% Igepal, 0.5% sodium deoxycholate, 150 mM NaCl, and 0.5% sodium dodecyl sulfate) containing protease inhibitors (Roche 4693132001) and phosphatase inhibitors (Roche 4906837001). Phosphorylation of ERK1/2 in compound-treated lysates was assayed using Phospho-ERK1/2 Whole Cell Lysate kits (Meso Scale Discovery K151DWD) according to the manufacturer's protocol. Assay plates were read on a Meso Scale Discovery Sector Imager 6000, and data were analyzed using a 4-parameter logistic model to calculate IC50 values.

In general, IC50 refers to the midpoint of a concentration-inhibition curve. Consider `C=CC(=O)N1C[C@H](C)N(c2nc(=O)n(-c3c(C)ccnc3C(C)C)c3nc(-c4c(N)cccc4F)c(F)cc23)C[C@H]1C` [Example 6, 4-((2S,5R,M)-4-Acryloyl-2,5-dimethylpiperazin-1-yl)-7-(2-amino-6-fluorophenyl)-6-fluoro-1-(2-isopropyl-4-methylpyridin-3-yl)pyrido[2,3-d]pyrimidin-2(1H)-one], for which the results for the IC50 in assay [1] and in assay [2] were 38 nM and 26 nM, respectively.

As to `C=CC(=O)N1[C@H](C)CN(c2nc(=O)n(-c3c(C(C)C)ncnc3C(C)C)c3nc(-c4c(N)cccc4F)c(Cl)cc23)C[C@@H]1C` [Example 21, 4-(4-Acryloyl-cis-3,5-dimethylpiperazin-1-yl)-7-(2-amino-6-fluorophenyl)-6-chloro-1-(4,6-diisopropylpyrimidin-5-yl)pyrido[2,3-d]pyrimidin-2(1H)-one], the half-inhibitory concentration (IC50) in assay [1] was 92 nM; in assay [2], 36 nM.

As to `C=CC(=O)N1[C@H](C)CN(c2nc(=O)n(-c3c(C(C)C)ncnc3C(C)C)c3nc(-c4c(O)cccc4F)c(F)cc23)C[C@@H]1C` [Example 23, 4-(4-Acryloyl-cis-3,5-dimethylpiperazin-1-yl)-1-(4,6-diisopropylpyrimidin-5-yl)-6-fluoro-7-(2-fluoro-6-hydroxyphenyl)pyrido[2,3-d]pyrimidin-2(1H)-one], the IC50 in assay [1] stood at 173 nM; in assay [2] it was 132 nM.

For `C=CC(=O)N1[C@H](C)CN(c2nc(=O)n(-c3c(C(C)C)ncnc3C(C)C)c3nc(-c4ccccc4F)c(Cl)cc23)C[C@@H]1C` [Example 19, 4-(4-Acryloyl-cis-3,5-dimethylpiperazin-1-yl)-6-chloro-1-(4,6-diisopropylpyrimidin-5-yl)-7-(2-fluorophenyl)pyrido[2,3-d]pyrimidin-2(1H)-one], the IC50 in assay [1] worked out at 42 nM; in assay [2], 61 nM.

As for `C=CC(=O)N1C[C@H](C)N(c2nc(=O)n(-c3c(C(C)C)ncnc3C(C)C)c3nc(-c4c(N)cccc4F)c(Cl)cc23)C[C@H]1C` [Example 9, 4-((2S,5R)-4-Acryloyl-2,5-dimethylpiperazin-1-yl)-7-(2-amino-6-fluorophenyl)-6-chloro-1-(4,6-diisopropylpyrimidin-5-yl)pyrido[2,3-d]pyrimidin-2(1H)-one], the half-maximal inhibitory concentration (IC50) stood at 54 nM in assay [1] and 21 nM in assay [2].

For the compound `C=CC(=O)N1[C@H](C)CN(c2nc(=O)n(-c3c(C)ccnc3C(C)C)c3nc(-c4ccccc4F)c(Cl)cc23)C[C@@H]1C` (atropisomer, axis not shown; (M)) [Example 13, (M)-4-(4-Acryloyl-cis-3,5-dimethylpiperazin-1-yl)-6-chloro-7-(2-fluorophenyl)-1-(2-isopropyl-4-methylpyridin-3-yl)pyrido[2,3-d]pyrimidin-2(1H)-one], the results for the IC50 in assay [1] and in assay [2] were 53 nM and 46 nM, respectively.
